Assay [1] concerns the target T1, aggregated recombinant human-microtubule associated protein Tau (Homo sapiens, UniProt P10636).
T1 construct: Recombinant human-microtubule associated protein Tau purified from E. coli is aggregated at a concentration of 5 μM with Arachidonic Acid (100 μM) in Tris 10 mM pH8, 24 h at 37° C
Put plainly: Thiazin-red R displacement fluorescence assay on aggregated Tau. The assay is classed as binding. Conditions: displacement of Thiazin-red R from aggregated Tau; compound 0.3 nM to 10000 nM; 30 min room temperature; Ex 531 nm/Em 595 nm. The protocol: (§1) Assay for Determination of […] for Tau and A-Beta
(§2) Recombinant human-microtubule associated protein Tau purified from E. coli is aggregated at a concentration of 5 μM with Arachidonic Acid (100 μM) in Tris 10 mM pH8, 24 h at 37° C. Synthetic Aβ40 is aggregated at a concentration of 50 μM with Arachidonic Acid (100 μM) in Tris 10 mM pH8, for three days at 37° C., under shaking at 150 rpm.
(§3) A saturation analysis of Thiazin-red R to the aggregated proteins is done to determine the affinity (Kd) of the Thiazin-red R to the aggregated protein.
(§4) Thiazin-red R will be added at the concentration corresponding to the Kd to the respective aggregated protein binding site, to induce a fluorescent signal that can be inhibited by the addition of a displacer compound.
(§5) In parallel, auto fluorescence of the compound is measured together with the aggregated proteins, but without Thiazin-red R. As negative control, ligand and aggregated protein is used and as positive control, Thiazin-red R, reference compound with known activity and aggregated protein is used.
(§6) Assay is performed in Perkin Elmer OptiPlate 384, black, 45 ul assay volume, assay buffer is DPBS no CaCl2 no MgCl2 (GIBCO N. 14020). Tested compounds are diluted in DMSO and 2 μl is added to the assay ([…]). Assay is started by the addition of the aggregated protein (competitive condition). Plates are shortly shacked (1 min with Sterico variomag teleshake) and incubated for 30 min at room temperature. Measurement are done with En:Vision (Perkin Elmer), at Excitation 531 nm/Emission 595 nm.

The target of assay [2] is T2, aggregated synthetic Aβ40 (Homo sapiens, UniProt P05067).
T2 construct: Synthetic Aβ40 is aggregated at a concentration of 50 μM
Put plainly: Thiazin-red R displacement fluorescence assay on aggregated A-beta. The assay is classed as binding. Conditions: displacement of Thiazin-red R from aggregated Aβ40; compound 0.3 nM to 10000 nM; 30 min room temperature; Ex 531 nm/Em 595 nm. The protocol:
as §1, §2, §3, §4, §5, §6

SMILES strings stand for the structures. pIC50: −log10 of the molar value. Where only a bound is given, the exact number is not on record here.

T1 sequence (P10636 whole entry): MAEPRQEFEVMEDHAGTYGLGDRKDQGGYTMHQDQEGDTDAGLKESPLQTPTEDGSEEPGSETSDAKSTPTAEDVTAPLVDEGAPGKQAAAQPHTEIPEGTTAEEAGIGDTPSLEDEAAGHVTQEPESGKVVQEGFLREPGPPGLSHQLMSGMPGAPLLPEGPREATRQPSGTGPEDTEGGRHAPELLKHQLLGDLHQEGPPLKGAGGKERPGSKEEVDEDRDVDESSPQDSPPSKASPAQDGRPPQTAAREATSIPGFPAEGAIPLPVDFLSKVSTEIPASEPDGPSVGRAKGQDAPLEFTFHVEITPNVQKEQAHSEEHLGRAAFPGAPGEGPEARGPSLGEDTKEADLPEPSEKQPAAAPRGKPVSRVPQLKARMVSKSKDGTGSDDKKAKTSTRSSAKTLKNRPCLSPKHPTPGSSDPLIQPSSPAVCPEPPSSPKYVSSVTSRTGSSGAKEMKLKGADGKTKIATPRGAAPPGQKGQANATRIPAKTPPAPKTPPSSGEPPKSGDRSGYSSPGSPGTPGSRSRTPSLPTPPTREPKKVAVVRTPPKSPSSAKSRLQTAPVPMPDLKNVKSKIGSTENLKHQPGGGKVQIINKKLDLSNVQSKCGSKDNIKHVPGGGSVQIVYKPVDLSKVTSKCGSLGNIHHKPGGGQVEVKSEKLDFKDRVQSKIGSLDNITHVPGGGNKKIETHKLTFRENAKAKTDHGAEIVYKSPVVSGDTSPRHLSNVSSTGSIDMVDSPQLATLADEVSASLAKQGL
T2 sequence (P05067 672-711 limits assumed): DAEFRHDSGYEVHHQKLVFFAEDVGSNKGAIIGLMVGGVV

In the case of `COc1cc(/C=c2\sc3nc(-c4ccc(C(=O)NCCN)cc4)cn3c2=O)cc(Cl)c1O` [Example 151, N-(2-Amino-ethyl)-4-{2-[1-(3-chloro-4-hydroxy-5-methoxy-phenyl)-meth-(Z)-ylidene]-3-oxo-2,3-dihydro-imidazo[2,1-b]thiazol-6-yl}-benzamide], the pIC50 was 7.92 in assay [1] and 7.62 in assay [2].
In the case of `COc1cc(/C=c2\sc3nc(-c4cccc(OC(F)(F)F)c4)cn3c2=O)cc(Br)c1O` [Example 37, 2-[1-(3-Bromo-4-hydroxy-5-methoxy-phenyl)-meth-(Z)-ylidene]-6-(3-trifluoromethoxy-phenyl)-imidazo[2,1-b]thiazol-3-one], the values for the pIC50 in assay [1] and in assay [2] were 8.22 and 6.26, respectively.
`COc1cc(/C=c2\sc3nc(-c4ccc(C(=O)OCCF)cc4)cn3c2=O)cc(Cl)c1O` [Example 148, 4-{2-[1-(3-Chloro-4-hydroxy-5-methoxy-phenyl)-meth-(Z)-ylidene]-3-oxo-2,3-dihydro-imidazo[2,1-b]thiazol-6-yl}-benzoic acid 2-fluoro-ethyl ester]: the pIC50 in assay [1] is 8.40; in assay [2] it was 7.42.
Regarding `CCCOc1cc(/C=c2\sc3nc(-c4cccnc4)cn3c2=O)cc(Cl)c1O` [Example 110, 2-[1-(3-Chloro-4-hydroxy-5-propoxy-phenyl)-meth-(Z)-ylidene]-6-pyridin-3-yl-imidazo[2,1-b]thiazol-3-one], the values for the pIC50 in assay [1] and in assay [2] were 7.77 and 6.37, respectively.
For the molecule `COc1cc(/C=c2\sc3nc(-c4cc(Br)cc(C#N)c4)cn3c2=O)cc(Cl)c1O` [Example 85, 3-Bromo-5-{2-[1-(3-chloro-4-hydroxy-5-methoxy-phenyl)-meth-(Z)-ylidene]-3-oxo-2,3-dihydro-imidazo[2,1-b]thiazol-6-yl}-benzonitrile], the negative-log IC50 (pIC50) in assay [1] was 9.10; in assay [2], 5.76.
`COc1cc(/C=c2\sc3nc(-c4cccc(OC(F)F)c4)cn3c2=O)cc(Cl)c1O` [Example 62, 2-[1-(3-Chloro-4-hydroxy-5-methoxy-phenyl)-meth-(Z)-ylidene]-6-(3-(difluoromethoxy)-phenyl)-imidazo[2,1-b]thiazol-3-one]: the pIC50 is 8.22 in assay [1] and 5.38 in assay [2].
On to `COc1cc(/C=c2\sc3nc(-c4cccc(C#N)c4)cn3c2=O)cc(OC(C)C)c1O` [Example 51, 3-{2-[1-(4-Hydroxy-3-methoxy-5-isopropoxyphenyl)-meth-(Z)-ylidene]-3-oxo-2,3-dihydro-imidazo[2,1-b]thiazol-6-yl}-benzonitrile], for which the figures for the pIC50 in assay [1] and in assay [2] were 6.56 and < 5.00, respectively.
Regarding `COc1cc(/C=c2\sc3nc(-c4ccc(N(C)C)cc4)cn3c2=O)cc(Cl)c1O` [Example 93, 2-[1-(3-Chloro-4-hydroxy-5-methoxy-phenyl)-meth-(Z)-ylidene]-6-(4-(dimethylamino)phenyl)-imidazo[2,1-b]thiazol-3-one], the pIC50 is 7.52 in assay [1] and 7.54 in assay [2].
In the case of `COc1cc(/C=c2\sc3nc(-c4cc(F)ccc4F)cn3c2=O)cc(Cl)c1O` [Example 56, 2-[1-(3-Chloro-4-hydroxy-5-methoxy-phenyl)-meth-(Z)-ylidene]-6-(2,5-difluoro-phenyl)-imidazo[2,1-b]thiazol-3-one], the negative logarithm of the IC50 (pIC50) in assay [1] was 7.57.
`COc1cc(/C=c2\sc3nc(-c4cccc(C#N)c4)cn3c2=O)cc(F)c1O` [Example 73, 3-{2-[1-(3-Fluoro-4-hydroxy-5-methoxy-phenyl)-meth-(Z)-ylidene]-3-oxo-2,3-dihydro-imidazo[2,1-b]thiazol-6-yl}-benzonitrile] gave a pIC50 in assay [2] of 7.89.
Regarding `COc1cc(/C=c2\sc3nc(-c4ccc(C(=O)OCCCF)cc4)cn3c2=O)cc(Cl)c1O` [Example 149, 4-{2-[1-(3-Chloro-4-hydroxy-5-methoxy-phenyl)-meth-(Z)-ylidene]-3-oxo-2,3-dihydro-imidazo[2,1-b]thiazol-6-yl}-benzoic acid 3-fluoro-propyl ester], the values for the pIC50 in assay [1] and in assay [2] were 8.70 and 6.77, respectively.
With `CCCOc1cc(/C=c2\sc3nc(-c4ccncc4)cn3c2=O)cc(F)c1O` [Example 122, 2-[1-(3-Fluoro-4-hydroxy-5-propoxy-phenyl)-meth-(Z)-ylidene]-6-pyridin-4-yl-imidazo[2,1-b]thiazol-3-one], the pIC50 in assay [1] was 7.63; in assay [2] it was 5.57.
On to `COc1cc(/C=c2\sc3nc(-c4cccc(F)c4)cn3c2=O)cc(F)c1O` [Example 58, 2-[1-(3-Fluoro-4-hydroxy-5-methoxy-phenyl)-meth-(Z)-ylidene]-6-(3-fluoro-phenyl)-imidazo[2,1-b]thiazol-3-one], for which the pIC50 in assay [1] is 7.72; in assay [2] it was 6.12.
Regarding `COc1cc(/C=c2\sc3nc(-c4ccc(C(=O)NCCNC(=O)OC(C)(C)C)cc4)cn3c2=O)cc(Cl)c1O` [Example 150, [2-(4-{2-[1-(3-Chloro-4-hydroxy-5-methoxy-phenyl)-meth-(Z)-ylidene]-3-oxo-2,3-dihydro-imidazo[2,1-b]thiazol-6-yl}-benzoylamino)-ethyl]-carbamic acid tert-butyl ester], the pIC50 in assay [1] was 8.74; in assay [2], 6.93.
For `COc1cc(/C=c2\sc3nc(-c4ccc(F)c(C(F)(F)F)c4)cn3c2=O)cc(F)c1O` [Example 42, 2-[1-(3-fluoro-4-hydroxy-5-methoxy-phenyl)-meth-(Z)-ylidene]-6-(4-fluoro-3-(trifluoromethyl)-phenyl)-imidazo[2,1-b]thiazol-3-one], the negative logarithm of the IC50 (pIC50) in assay [1] was 7.62; in assay [2] it was 6.70.
For `COc1cc(/C=c2\sc3nc(-c4cc(C)nc(C)c4)cn3c2=O)cc(Cl)c1O` [Example 63, 2-[1-(3-Chloro-4-hydroxy-5-methoxy-phenyl)-meth-(Z)-ylidene]-6-(2,6-dimethyl-pyridin-4-yl)-imidazo[2,1-b]thiazol-3-one] the same measures were 7.89 and 6.38.
With `COc1cc(/C=c2\sc3nc(-c4ccncc4)cn3c2=O)cc(OC)c1O` [Example 1, 2-[1-(4-Hydroxy-3,5-dimethoxy-phenyl)-meth-(Z)-ylidene]-6-pyridin-4-yl-imidazo[2,1-b]thiazol-3-one], the pIC50 in assay [1] is 8.30; in assay [2], 7.03.
For `COc1cc(/C=c2\sc3nc(-c4ccncc4)cn3c2=O)cc(Cl)c1O` [Example 68, 2-[1-(3-Chloro-4-hydroxy-5-methoxy-phenyl)-meth-(Z)-ylidene]-6-(pyridin-4-yl)-imidazo[2,1-b]thiazol-3-one] the same measures were 8.52 and 6.52.
In the case of `COc1cc(/C=c2\sc3nc(-c4ccccc4OCCOCCOCCF)cn3c2=O)cc(Cl)c1O` [Example 96, 2-[1-(3-Chloro-4-hydroxy-5-methoxy-phenyl)-meth-(Z)-ylidene]-6-(2-{2-[2-(2-fluoro-ethoxy)-ethoxy]-ethoxy}-phenyl)-imidazo[2,1-b]thiazol-3-one], in assay [1], the pIC50 was 6.99.
Consider `COc1cc(/C=c2\sc3nc(-c4cccc(OC(F)(F)F)c4)cn3c2=O)cc(F)c1O` [Example 35, 2-[1-(3-Fluoro-4-hydroxy-5-methoxy-phenyl)-meth-(Z)-ylidene]-6-(3-trifluoromethoxy-phenyl)-imidazo[2,1-b]thiazol-3-one], for which the pIC50 in assay [1] is 7.89.
In the case of `COc1ccccc1-c1cn2c(=O)/c(=C/c3cc(Cl)c(O)c(OC)c3)sc2n1` [Example 55, 2-[1-(3-Chloro-4-hydroxy-5-methoxy-phenyl)-meth-(Z)-ylidene]-6-(2-methoxy-phenyl)-imidazo[2,1-b]thiazol-3-one], the pIC50 in assay [1] was 6.99.
With `COc1cc(/C=c2\sc3nc(-c4cccc(C#N)c4)cn3c2=O)cc(OC)c1O` [Example 50, 3-{2-[1-(4-Hydroxy-3,5-dimethoxy-phenyl)-meth-(Z)-ylidene]-3-oxo-2,3-dihydro-imidazo[2,1-b]thiazol-6-yl}-benzonitrile], the pIC50 in assay [1] was 8.15.
The same measure, in the same setting: to `COc1cc(/C=c2\sc3nc(-c4ccccc4OCCF)cn3c2=O)cc(Cl)c1O` [Example 83, 2-[1-(3-Chloro-4-hydroxy-5-methoxy-phenyl)-meth-(Z)-ylidene]-6-(2-(2-fluoroethoxyl)phenyl)-imidazo[2,1-b]thiazol-3-one] belongs 6.76.
For `COc1cc(/C=c2\sc3nc(-c4cccc(C(=O)N(C)CCF)c4)cn3c2=O)cc(Cl)c1O` [Example 120, 3-{2-[1-(3-Chloro-4-hydroxy-5-methoxy-phenyl)-meth-(Z)-ylidene]-3-oxo-2,3-dihydro-imidazo[2,1-b]thiazol-6-yl}-N-(2-fluoro-ethyl)-N-methyl-benzamide], the pIC50 in assay [1] is 7.31.
Take `COc1cc(/C=c2\sc3nc(-c4cccc(C#N)c4)cn3c2=O)cc(F)c1O` [Example 38, 3-{2-[1-(3-Fluoro-4-hydroxy-5-methoxy-phenyl)-meth-(Z)-ylidene]-3-oxo-2,3-dihydro-imidazo[2,1-b]thiazol-6-yl}-benzonitrile]: in assay [2], the pIC50 was < 5.00.
